Source: the NIST ThermoML archive (doi:10.1007/s10765-008-0410-4)
± gives the expanded uncertainty stated by the source.

Assay: xn = mol fraction of the nth substance listed
Conditions: Liquid, Vibrating tube method

`CCCCn1cc[n+](C)c1.F[B-](F)(F)F` [1-butyl-3-methylimidazolium tetrafluoroborate] + CCO showed a mass density (373.15 K, 30260 kPa, x1 = 0.0701) of 841.81 ± 0.29 kg/m3, a mass density (373.15 K, 30670 kPa, x1 = 0.3147) of 1010.47 ± 0.16 kg/m3 and a mass density (373.15 K, 35030 kPa, x1 = 0.5384) of 1092.26 ± 0.47 kg/m3. For the same molecule, the mass density (373.15 K, 35180 kPa, x1 = 0.7452) was 1138.19 ± 0.85 kg/m3, the mass density (373.15 K, 35220 kPa, x1 = 0.3147) was 1013.34 ± 0.17 kg/m3 and the mass density (373.15 K, 35520 kPa, x1 = 0.0701) was 846.1 ± 0.31 kg/m3. It also gave a mass density (373.15 K, 35530 kPa, x1 = 1) of 1177.22 ± 1.5 kg/m3, a mass density (373.15 K, 36740 kPa, x1 = 0.9152) of 1166.35 ± 1.2 kg/m3 and a mass density (373.15 K, 39820 kPa, x1 = 0.3147) of 1016.1 ± 0.17 kg/m3. For the same molecule, the mass density (373.15 K, 39820 kPa, x1 = 1) was 1179.41 ± 1.5 kg/m3, the mass density (373.15 K, 39840 kPa, x1 = 0.0701) was 849.4 ± 0.33 kg/m3 and the mass density (373.15 K, 39870 kPa, x1 = 0.9152) was 1167.99 ± 1.3 kg/m3. The mass density (373.15 K, 39920 kPa, x1 = 0.7452) was 1140.63 ± 0.88 kg/m3, the mass density (373.15 K, 39940 kPa, x1 = 0.5384) was 1095.08 ± 0.49 kg/m3 and the mass density (398.15 K, 860 kPa, x1 = 0.9152) was 1128.45 ± 0.95 kg/m3. The mass density (398.15 K, 870 kPa, x1 = 1) was 1141.05 ± 1.1 kg/m3, the mass density (398.15 K, 920 kPa, x1 = 0.5384) was 1049.06 ± 0.31 kg/m3 and the mass density (398.15 K, 940 kPa, x1 = 0.7452) was 1098.62 ± 0.61 kg/m3. It also gave a mass density (398.15 K, 960 kPa, x1 = 0.3147) of 966.26 ± 0.17 kg/m3, a mass density (398.15 K, 1010 kPa, x1 = 0.0701) of 788.85 ± 0.17 kg/m3 and a mass density (398.15 K, 5060 kPa, x1 = 0.5384) of 1052.44 ± 0.32 kg/m3. The mass density (398.15 K, 5120 kPa, x1 = 0.7452) was 1101.74 ± 0.63 kg/m3, the mass density (398.15 K, 5750 kPa, x1 = 0.0701) was 795.42 ± 0.19 kg/m3 and the mass density (398.15 K, 5840 kPa, x1 = 0.9152) was 1131.83 ± 0.98 kg/m3. For the same molecule, the mass density (398.15 K, 6350 kPa, x1 = 0.3147) was 971.33 ± 0.16 kg/m3, the mass density (398.15 K, 6670 kPa, x1 = 1) was 1144.53 ± 1.2 kg/m3 and the mass density (398.15 K, 9630 kPa, x1 = 0.9152) was 1134.36 ± 1 kg/m3. It also gave a mass density (398.15 K, 10070 kPa, x1 = 0.7452) of 1105.35 ± 0.66 kg/m3, a mass density (398.15 K, 10150 kPa, x1 = 0.0701) of 801.14 ± 0.21 kg/m3 and a mass density (398.15 K, 10420 kPa, x1 = 0.5384) of 1056.68 ± 0.34 kg/m3. For the same molecule, the mass density (398.15 K, 10490 kPa, x1 = 1) was 1147.07 ± 1.2 kg/m3, the mass density (398.15 K, 10930 kPa, x1 = 0.3147) was 975.46 ± 0.17 kg/m3 and the mass density (398.15 K, 15030 kPa, x1 = 0.5384) was 1060.22 ± 0.35 kg/m3. It also gave a mass density (398.15 K, 15080 kPa, x1 = 0.7452) of 1108.88 ± 0.69 kg/m3, a mass density (398.15 K, 15110 kPa, x1 = 0.0701) of 807.16 ± 0.24 kg/m3 and a mass density (398.15 K, 15620 kPa, x1 = 0.3147) of 979.51 ± 0.17 kg/m3. It also gave a mass density (398.15 K, 15730 kPa, x1 = 1) of 1150.32 ± 1.2 kg/m3, a mass density (398.15 K, 16470 kPa, x1 = 0.9152) of 1138.81 ± 1.1 kg/m3 and a mass density (398.15 K, 19970 kPa, x1 = 0.5384) of 1063.89 ± 0.37 kg/m3. For the same molecule, the mass density (398.15 K, 20040 kPa, x1 = 0.9152) was 1141.07 ± 1.1 kg/m3, the mass density (398.15 K, 20150 kPa, x1 = 0.3147) was 983.26 ± 0.17 kg/m3 and the mass density (398.15 K, 20640 kPa, x1 = 0.7452) was 1112.68 ± 0.72 kg/m3. For the same molecule, the mass density (398.15 K, 20740 kPa, x1 = 0.0701) was 813.42 ± 0.27 kg/m3, the mass density (398.15 K, 20980 kPa, x1 = 1) was 1153.78 ± 1.3 kg/m3 and the mass density (398.15 K, 24980 kPa, x1 = 0.5384) was 1067.49 ± 0.39 kg/m3. It also gave a mass density (398.15 K, 25120 kPa, x1 = 0.9152) of 1144.22 ± 1.1 kg/m3, a mass density (398.15 K, 25130 kPa, x1 = 0.0701) of 817.89 ± 0.29 kg/m3 and a mass density (398.15 K, 25140 kPa, x1 = 1) of 1156.3 ± 1.3 kg/m3. It also gave a mass density (398.15 K, 25170 kPa, x1 = 0.3147) of 987.21 ± 0.16 kg/m3, a mass density (398.15 K, 25370 kPa, x1 = 0.7452) of 1115.8 ± 0.75 kg/m3 and a mass density (398.15 K, 30030 kPa, x1 = 0.5384) of 1070.98 ± 0.41 kg/m3. For the same molecule, the mass density (398.15 K, 30280 kPa, x1 = 0.7452) was 1118.94 ± 0.78 kg/m3, the mass density (398.15 K, 30410 kPa, x1 = 0.3147) was 991.12 ± 0.16 kg/m3 and the mass density (398.15 K, 30450 kPa, x1 = 0.9152) was 1147.45 ± 1.1 kg/m3. It also gave a mass density (398.15 K, 30850 kPa, x1 = 0.0701) of 823.16 ± 0.32 kg/m3, a mass density (398.15 K, 30890 kPa, x1 = 1) of 1159.52 ± 1.4 kg/m3 and a mass density (398.15 K, 35070 kPa, x1 = 0.5384) of 1074.35 ± 0.43 kg/m3. The mass density (398.15 K, 35140 kPa, x1 = 0.7452) was 1121.93 ± 0.81 kg/m3, the mass density (398.15 K, 35160 kPa, x1 = 0.3147) was 994.46 ± 0.16 kg/m3 and the mass density (398.15 K, 35740 kPa, x1 = 0.9152) was 1150.56 ± 1.2 kg/m3. For the same molecule, the mass density (398.15 K, 35810 kPa, x1 = 1) was 1162.4 ± 1.4 kg/m3, the mass density (398.15 K, 35860 kPa, x1 = 0.0701) was 827.28 ± 0.35 kg/m3 and the mass density (398.15 K, 39560 kPa, x1 = 1) was 1164.38 ± 1.4 kg/m3. The mass density (398.15 K, 39850 kPa, x1 = 0.3147) was 997.59 ± 0.16 kg/m3, the mass density (398.15 K, 39860 kPa, x1 = 0.9152) was 1152.93 ± 1.2 kg/m3 and the mass density (398.15 K, 39920 kPa, x1 = 0.7452) was 1124.78 ± 0.84 kg/m3. The mass density (398.15 K, 39940 kPa, x1 = 0.5384) was 1077.48 ± 0.45 kg/m3 and the mass density (398.15 K, 39990 kPa, x1 = 0.0701) was 830.32 ± 0.37 kg/m3.
